The text below walks through data of the NIST ThermoML archive (doi:10.1016/j.jct.2005.04.010).

The series in a line: activity coefficient (dimensionless); of the first substance listed, at infinite dilution; xn = mol fraction of the nth substance listed. The note with it: Liquid, x1 = 0.

Each structure is given as a SMILES string. ± gives the expanded uncertainty stated by the source.

As for `CCCCCCCC` [octane] + CCCC[N+]1(C)CCCC1.O=S(=O)([N-]S(=O)(=O)C(F)(F)F)C(F)(F)F, the activity coefficient (303.15 K, dilutor) is 28.3 ± 1.4; the activity coefficient (313.15 K, dilutor) stood at 26.5 ± 1.3; the activity coefficient (323.15 K, dilutor) is 25.2 ± 1.3; the activity coefficient (333.15 K, dilutor) turned out to be 23.7 ± 1.2.

`CCCC(C)=O` [pentan-2-one] + CCCCCC[n+]1ccn(C)c1.O=S(=O)([N-]S(=O)(=O)C(F)(F)F)C(F)(F)F: the activity coefficient came out at 0.51 ± 0.03 (303.15 K, Chromatography); 0.52 ± 0.03 (313.15 K, Chromatography); 0.54 ± 0.03 (323.15 K, Chromatography); 0.55 ± 0.03 (333.15 K, Chromatography).

For the compound `CCCC(C)=O` [pentan-2-one] + CCCC[N+]1(C)CCCC1.O=S(=O)([N-]S(=O)(=O)C(F)(F)F)C(F)(F)F, the activity coefficient by setting is: (303.15 K, dilutor) 0.63 ± 0.03; (313.15 K, dilutor) 0.66 ± 0.03; (323.15 K, dilutor) 0.68 ± 0.03; (333.15 K, dilutor) 0.71 ± 0.04.

In the case of `CCCCC` [pentane] + CCCCCCCCn1cc[n+](C)c1.O=S(=O)([N-]S(=O)(=O)C(F)(F)F)C(F)(F)F, the activity coefficient by setting is: (303.15 K, Chromatography) 4.07 ± 0.19; (303.15 K, dilutor) 3.98 ± 0.2; (313.15 K, Chromatography) 3.94 ± 0.18; (313.15 K, dilutor) 3.92 ± 0.2; (323.15 K, Chromatography) 3.78 ± 0.17; (323.15 K, dilutor) 3.87 ± 0.19. Further, the activity coefficient is, setting by setting: (333.15 K, Chromatography) 3.6 ± 0.16; (333.15 K, dilutor) 3.84 ± 0.19.

Turning to `CCCCC` [pentane] + CCCCCC[n+]1ccn(C)c1.O=S(=O)([N-]S(=O)(=O)C(F)(F)F)C(F)(F)F, the activity coefficient was found to be 5.95 ± 0.27 (303.15 K, Chromatography); 5.93 ± 0.3 (303.15 K, dilutor); 5.76 ± 0.26 (313.15 K, Chromatography); 5.67 ± 0.28 (313.15 K, dilutor); 5.65 ± 0.26 (323.15 K, Chromatography); 5.48 ± 0.27 (323.15 K, dilutor). Moreover, the activity coefficient by setting is: (333.15 K, Chromatography) 5.52 ± 0.25; (333.15 K, dilutor) 5.27 ± 0.26.

For the compound `CCCCC` [pentane] + CCCC[N+]1(C)CCCC1.O=S(=O)([N-]S(=O)(=O)C(F)(F)F)C(F)(F)F, the activity coefficient reads like this: (303.15 K, dilutor) 9.22 ± 0.46; (313.15 K, dilutor) 9.18 ± 0.46; (323.15 K, dilutor) 8.62 ± 0.43; (333.15 K, dilutor) 8.29 ± 0.41.

`CCCO` [propan-1-ol] + CCCCCCCCn1cc[n+](C)c1.O=S(=O)([N-]S(=O)(=O)C(F)(F)F)C(F)(F)F: the activity coefficient runs as follows: (303.15 K, Chromatography) 1.67 ± 0.07; (313.15 K, Chromatography) 1.51 ± 0.06; (323.15 K, Chromatography) 1.35 ± 0.05; (333.15 K, Chromatography) 1.24 ± 0.04.

In the case of `CCCO` [propan-1-ol] + CCCCCC[n+]1ccn(C)c1.O=S(=O)([N-]S(=O)(=O)C(F)(F)F)C(F)(F)F, the activity coefficient runs as follows: (303.15 K, Chromatography) 1.9 ± 0.08; (313.15 K, Chromatography) 1.71 ± 0.07; (323.15 K, Chromatography) 1.57 ± 0.06; (333.15 K, Chromatography) 1.45 ± 0.05.

As to `CC(C)O` [propan-2-ol] + CCCCCC[n+]1ccn(C)c1.O=S(=O)([N-]S(=O)(=O)C(F)(F)F)C(F)(F)F, the activity coefficient (303.15 K, Chromatography) was found to be 1.71 ± 0.07; the activity coefficient (303.15 K, dilutor) was found to be 1.72 ± 0.09; the activity coefficient (323.15 K, Chromatography) came out at 1.44 ± 0.05; the activity coefficient (323.15 K, dilutor) stood at 1.37 ± 0.07; the activity coefficient (333.15 K, Chromatography) was found to be 1.33 ± 0.05; the activity coefficient (333.15 K, dilutor) is 1.23 ± 0.06.

With `CC(C)O` [propan-2-ol] + CCCC[N+]1(C)CCCC1.O=S(=O)([N-]S(=O)(=O)C(F)(F)F)C(F)(F)F, the activity coefficient stood at 2.11 ± 0.11 (303.15 K, dilutor); 1.92 ± 0.1 (313.15 K, dilutor); 1.77 ± 0.09 (323.15 K, dilutor); 1.63 ± 0.08 (333.15 K, dilutor).

For the compound `C1CCOC1` [tetrahydrofuran] + CCCCCC[n+]1ccn(C)c1.O=S(=O)([N-]S(=O)(=O)C(F)(F)F)C(F)(F)F, the activity coefficient runs as follows: (303.15 K, Chromatography) 0.49 ± 0.03; (313.15 K, Chromatography) 0.51 ± 0.03; (323.15 K, Chromatography) 0.53 ± 0.03; (333.15 K, Chromatography) 0.55 ± 0.03.

Take `Cc1ccccc1` [toluene] + CCCCCCCCn1cc[n+](C)c1.O=S(=O)([N-]S(=O)(=O)C(F)(F)F)C(F)(F)F: the activity coefficient was 0.82 ± 0.03 (303.15 K, Chromatography); 0.83 ± 0.03 (313.15 K, Chromatography); 0.85 ± 0.03 (323.15 K, Chromatography); 0.85 ± 0.03 (333.15 K, Chromatography).

Turning to `Cc1ccccc1` [toluene] + CCCCCC[n+]1ccn(C)c1.O=S(=O)([N-]S(=O)(=O)C(F)(F)F)C(F)(F)F, the activity coefficient reads like this: (303.15 K, Chromatography) 1.01 ± 0.03; (313.15 K, Chromatography) 1.03 ± 0.03; (323.15 K, Chromatography) 1.05 ± 0.03; (333.15 K, Chromatography) 1.08 ± 0.03.

As to `O` [water] + CCCCCCCCn1cc[n+](C)c1.O=S(=O)([N-]S(=O)(=O)C(F)(F)F)C(F)(F)F, the activity coefficient is 3.89 ± 0.18 (303.15 K, Chromatography); 3.76 ± 0.19 (303.15 K, dilutor); 3.52 ± 0.16 (313.15 K, Chromatography); 3.51 ± 0.18 (313.15 K, dilutor); 3.03 ± 0.14 (323.15 K, Chromatography); 3.29 ± 0.16 (323.15 K, dilutor). Also, the activity coefficient (333.15 K, Chromatography) turned out to be 2.58 ± 0.12.
